Here are results for two compounds from ChEMBL document CHEMBL1147400, “Novel antimitotic dibenzocyclo-octadiene lignan constituents of the stem bark of Steganotaenia araliacea” (1993).

Converted amounts (≈) assume the structure as drawn.

Tested on in one experiment: not listed separately
In words: Antimitotic activity against rat ASK cells assessed as reversal of astrocyte morphology at 0.032 ug/ml. The format is functional.
Details: not given
As to `COc1cc2c(c(OC)c1OC)-c1cc3c(cc1C(=O)[C@H]1COC(=O)[C@@H]1C2)OCO3`, the Activity came out at 0%.

As for `COc1cc2c(c(OC)c1OC)-c1ccc(OC)c(=O)cc1[C@@H](NC(C)=O)CC2` [COLCHICINE], the Activity is 0%.

In the next experiment the test system is SK-MEL-2. The experiment can be described thus: Cytotoxicity against human SK-MEL-2 cells. The format is functional. The following applies: read-out: ED50 (the source's name).
For `COc1cc2c(c(OC)c1OC)-c1cc3c(cc1C(=O)[C@H]1COC(=O)[C@@H]1C2)OCO3`, the EC50 is greater than 20 µg/mL.

`COc1cc2c(c(OC)c1OC)-c1ccc(OC)c(=O)cc1[C@@H](NC(C)=O)CC2` [COLCHICINE]: the EC50 is 0.007 µg/mL (≈ 0.0175 µM).

Tested on in the next experiment: not listed separately
The experiment can be described thus: Antimitotic activity against rat ASK cells assessed as reversal of astrocyte morphology at 0.8 ug/ml.
Details: not given
Format: functional.
With `COc1cc2c(c(OC)c1OC)-c1cc3c(cc1C(=O)[C@H]1COC(=O)[C@@H]1C2)OCO3`, the Activity is recorded as 100%.

As to `COc1cc2c(c(OC)c1OC)-c1ccc(OC)c(=O)cc1[C@@H](NC(C)=O)CC2` [COLCHICINE], the Activity is 70%.

Tested on in another experiment: not listed separately
The experiment can be described thus: Cytotoxicity against human BC1 cells. The format is functional. Particulars: read-out: ED50 (the source's name).
Turning to `COc1cc2c(c(OC)c1OC)-c1cc3c(cc1C(=O)[C@H]1COC(=O)[C@@H]1C2)OCO3`, the EC50 worked out at 1.8 µg/mL (≈ 4.36 µM).

As for `COc1cc2c(c(OC)c1OC)-c1ccc(OC)c(=O)cc1[C@@H](NC(C)=O)CC2` [COLCHICINE], the EC50 stood at 0.008 µg/mL (≈ 0.02 µM).

Tested on in another experiment: not listed separately
The experiment can be described thus: Antimitotic activity against rat ASK cells assessed as reversal of astrocyte morphology at 4 ug/ml. Format: functional.
Details: not given
Take `COc1cc2c(c(OC)c1OC)-c1cc3c(cc1C(=O)[C@H]1COC(=O)[C@@H]1C2)OCO3`: the Activity is 100%.

Consider `COc1cc2c(c(OC)c1OC)-c1ccc(OC)c(=O)cc1[C@@H](NC(C)=O)CC2` [COLCHICINE], for which the Activity was found to be 100%.

For another experiment, the system named is KB. The experiment can be described thus: Cytotoxicity against human KB cells. Format: functional. The following applies: read-out: ED50 (the source's name).
`COc1cc2c(c(OC)c1OC)-c1cc3c(cc1C(=O)[C@H]1COC(=O)[C@@H]1C2)OCO3`: the EC50 is 1.5 µg/mL (≈ 3.64 µM).

Turning to `COc1cc2c(c(OC)c1OC)-c1ccc(OC)c(=O)cc1[C@@H](NC(C)=O)CC2` [COLCHICINE], the EC50 was 0.02 µg/mL (≈ 0.0501 µM).

A further experiment deals with Lu1. The experiment can be described thus: Cytotoxicity against human Lu1 cells. Particulars: read-out: ED50 (the source's name). Format: functional.
On to `COc1cc2c(c(OC)c1OC)-c1cc3c(cc1C(=O)[C@H]1COC(=O)[C@@H]1C2)OCO3`, for which the EC50 was 1 µg/mL (≈ 2.42 µM).

Turning to `COc1cc2c(c(OC)c1OC)-c1ccc(OC)c(=O)cc1[C@@H](NC(C)=O)CC2` [COLCHICINE], the EC50 is 0.02 µg/mL (≈ 0.0501 µM).

Tested on in another experiment: not listed separately
The experiment can be described thus: Antimitotic activity against rat ASK cells assessed as reversal of astrocyte morphology at 0.0064 ug/ml.
Details: not given
The format is functional.
For `COc1cc2c(c(OC)c1OC)-c1cc3c(cc1C(=O)[C@H]1COC(=O)[C@@H]1C2)OCO3`, the Activity was found to be 0%.

With `COc1cc2c(c(OC)c1OC)-c1ccc(OC)c(=O)cc1[C@@H](NC(C)=O)CC2` [COLCHICINE], the Activity was 0%.

Another experiment is filed under the species Bos taurus. The experiment can be described thus: Inhibition of calf brain tubulin polymerization by turbidimetric analysis.
Details: not given
As to `COc1cc2c(c(OC)c1OC)-c1cc3c(cc1C(=O)[C@H]1COC(=O)[C@@H]1C2)OCO3`, the ED50 was determined as 68.2 µg/mL (≈ 165 µM).

For `COc1cc2c(c(OC)c1OC)-c1ccc(OC)c(=O)cc1[C@@H](NC(C)=O)CC2` [COLCHICINE], the ED50 worked out at 7.4 µg/mL (≈ 18.5 µM).

Tested on in another experiment: not listed separately
The experiment can be described thus: Antimitotic activity against rat ASK cells assessed as reversal of astrocyte morphology at 100 ug/ml.
Details: not given
Format: functional.
On to `COc1cc2c(c(OC)c1OC)-c1cc3c(cc1C(=O)[C@H]1COC(=O)[C@@H]1C2)OCO3`, for which the Activity turned out to be 100%.

In the case of `COc1cc2c(c(OC)c1OC)-c1ccc(OC)c(=O)cc1[C@@H](NC(C)=O)CC2` [COLCHICINE], the Activity was 100%.

Tested on in a further experiment: not listed separately
In words: Cytotoxicity against multidrug-resistant human KBV1 cells. Format: functional. Particulars: KB-V1, read-out: ED50 (the source's name).
`COc1cc2c(c(OC)c1OC)-c1cc3c(cc1C(=O)[C@H]1COC(=O)[C@@H]1C2)OCO3`: the EC50 is 7.1 µg/mL (≈ 17.2 µM).

In the case of `COc1cc2c(c(OC)c1OC)-c1ccc(OC)c(=O)cc1[C@@H](NC(C)=O)CC2` [COLCHICINE], the EC50 was determined as 3.5 µg/mL (≈ 8.76 µM).

The test system of a further experiment is LNCaP. The experiment can be described thus: Cytotoxicity against human LNCAP cells. Format: functional. The following applies: read-out: ED50 (the source's name).
In the case of `COc1cc2c(c(OC)c1OC)-c1cc3c(cc1C(=O)[C@H]1COC(=O)[C@@H]1C2)OCO3`, the EC50 is 2 µg/mL (≈ 4.85 µM).

`COc1cc2c(c(OC)c1OC)-c1ccc(OC)c(=O)cc1[C@@H](NC(C)=O)CC2` [COLCHICINE]: the EC50 stood at 0.06 µg/mL (≈ 0.15 µM).

Another experiment deals with ZR-75-1. The experiment can be described thus: Cytotoxicity against human ZR-75-1 cells. Format: functional. The following applies: read-out: ED50 (the source's name).
For `COc1cc2c(c(OC)c1OC)-c1cc3c(cc1C(=O)[C@H]1COC(=O)[C@@H]1C2)OCO3`, the EC50 was greater than 20 µg/mL.

Take `COc1cc2c(c(OC)c1OC)-c1ccc(OC)c(=O)cc1[C@@H](NC(C)=O)CC2` [COLCHICINE]: the EC50 was found to be 0.1 µg/mL (≈ 0.25 µM).

Tested on in another experiment: not listed separately
The experiment can be described thus: Antimitotic activity against rat ASK cells assessed as reversal of astrocyte morphology at 0.00128 ug/ml. Format: functional.
Details: not given
As for `COc1cc2c(c(OC)c1OC)-c1ccc(OC)c(=O)cc1[C@@H](NC(C)=O)CC2` [COLCHICINE], the Activity turned out to be 0%.

In the next experiment the test system is Col2. The experiment can be described thus: Cytotoxicity against human Col2 cells. Format: functional. The following applies: read-out: ED50 (the source's name).
Regarding `COc1cc2c(c(OC)c1OC)-c1cc3c(cc1C(=O)[C@H]1COC(=O)[C@@H]1C2)OCO3`, the EC50 amounted to 2.1 µg/mL (≈ 5.09 µM).

For the compound `COc1cc2c(c(OC)c1OC)-c1ccc(OC)c(=O)cc1[C@@H](NC(C)=O)CC2` [COLCHICINE], the EC50 is 0.001 µg/mL (≈ 0.0025 µM).

A further experiment deals with HT. In words: Cytotoxicity against human HT cells. The format is functional. Particulars: read-out: ED50 (the source's name).
In the case of `COc1cc2c(c(OC)c1OC)-c1cc3c(cc1C(=O)[C@H]1COC(=O)[C@@H]1C2)OCO3`, the EC50 was 0.7 µg/mL (≈ 1.7 µM).

Turning to `COc1cc2c(c(OC)c1OC)-c1ccc(OC)c(=O)cc1[C@@H](NC(C)=O)CC2` [COLCHICINE], the EC50 turned out to be 0.004 µg/mL (≈ 0.01 µM).

Tested on in another experiment: not listed separately
In words: Antimitotic activity against rat ASK cells assessed as reversal of astrocyte morphology at 0.16 ug/ml.
Details: not given
The format is functional.
Regarding `COc1cc2c(c(OC)c1OC)-c1cc3c(cc1C(=O)[C@H]1COC(=O)[C@@H]1C2)OCO3`, the Activity turned out to be 0%.

For `COc1cc2c(c(OC)c1OC)-c1ccc(OC)c(=O)cc1[C@@H](NC(C)=O)CC2` [COLCHICINE], the Activity is 0%.

The test system of the next experiment is A-431. The experiment can be described thus: Cytotoxicity against human A431 cells. Format: functional. The following applies: read-out: ED50 (the source's name).
As to `COc1cc2c(c(OC)c1OC)-c1cc3c(cc1C(=O)[C@H]1COC(=O)[C@@H]1C2)OCO3`, the EC50 was greater than 20 µg/mL.

Regarding `COc1cc2c(c(OC)c1OC)-c1ccc(OC)c(=O)cc1[C@@H](NC(C)=O)CC2` [COLCHICINE], the EC50 was 0.002 µg/mL (≈ 0.00501 µM).

Tested on in the next experiment: not listed separately
The experiment can be described thus: Cytotoxicity against human U373 cells. The format is functional, U-373MG ATCC. Particulars: U373 MG, read-out: ED50 (the source's name).
Take `COc1cc2c(c(OC)c1OC)-c1cc3c(cc1C(=O)[C@H]1COC(=O)[C@@H]1C2)OCO3`: the EC50 is greater than 20 µg/mL.

As for `COc1cc2c(c(OC)c1OC)-c1ccc(OC)c(=O)cc1[C@@H](NC(C)=O)CC2` [COLCHICINE], the EC50 was determined as 0.005 µg/mL (≈ 0.0125 µM).

Tested on in a further experiment: not listed separately
The experiment can be described thus: Antimitotic activity against rat ASK cells assessed as reversal of astrocyte morphology at 20 ug/ml.
Details: not given
Format: functional.
Turning to `COc1cc2c(c(OC)c1OC)-c1cc3c(cc1C(=O)[C@H]1COC(=O)[C@@H]1C2)OCO3`, the Activity was 100%.

With `COc1cc2c(c(OC)c1OC)-c1ccc(OC)c(=O)cc1[C@@H](NC(C)=O)CC2` [COLCHICINE], the Activity came out at 100%.
